This is an account of results in patent US20210290597A1, “METHOD OF TREATING A CONDITION ASSOCIATED WITH NEURODEGENERATION USING INHIBITORS OF OAT3” (Neuropore Therapies, Inc., priority 2018, published 2021).

What is called pIC50 is the IC50 on a negative log10 scale, so that one unit is a factor of ten. Low readings indicate a high IC50, high ones a low IC50.

pIC50: −log10 of the molar value.

Test [1] relates to Translocator Protein (18 kDa) (TSPO). As to the kind of experiment: TSPO immunofluorescence, L41 APP transgenic mice. The note with it: 5 mg/kg daily i.p. The class given is in vivo. The procedure: Neuroinflammation is associated with increased expression of the 18-kDa translocator protein (TSPO), which is present on the mitochondria of activated microglia, astroglia and macrophages (Crawshaw and Robertson 2017). The effects of Compound 1 on TSPO expression were assessed in both L41 APP transgenic and non-transgenic mice in a 1 month administration study. L41 APP transgenic mice (36 total mice, n=8-11 mice per treatment group) were injected (i.p.) daily with 5 mg/kg of Compound 1 or a vehicle control (5% DMSO+20% Cremphor EL+0.9% normal saline) for […]. Non-transgenic mice (18 total mice, n=8-11 mice per treatment group) were used as a control and were injected daily (i.p.) with 10 mg/kg of Compound 1 (data not shown) or a vehicle control (5% DMSO+20% Cremphor EL+0.9% normal saline) for 1 month. After 30 days, the mice were sacrificed, and immunofluoresence (IF) detection of TSPO were assessed in the harvested brain tissues.
The harvested brain tissues were drop fixed using 4% PFA and sectioned on a vibratome, and representative sections corresponding to the neuropil of cortex were assessed for TSPO with standard immunofluorescence (IF) staining.

Test [2] deals with glial fibrillary acidic protein (GFAP). As to the kind of experiment: GFAP IHC, L61 ASYN transgenic mice. The class given is in vivo. On the procedure:
Neuroinflammation is also associated with increased expression of glial fibrillary acidic protein (GFAP) in activated astrocytes, which is induced by a variety of molecules including pro-inflammatory mediators released from activated microglia (Saijo et al. 2009). Increased expression of glial fibrillary acidic protein (GFAP) represents astroglial activation and gliosis during neurodegeneration. (Brahmachari et al., 2006). The effects of Compound 1 on GFAP expression were assessed in both L61 ASYN transgenic and non-transgenic mice in a 1 month administration study. After 30 days, the mice were sacrificed, and IHC detection of GFAP was assessed in the harvested brain tissues.
The harvested brain tissues from treated mice were fixed (drop fixed in 4% PFA) and then sectioned into 40 micro thick sections using a vibratome. The representative sections containing the hippocampus were assessed for GFAP with standard immunohistochemistry staining. The general methods used for GFAP immunostaining follow those described in Rockenstein et al., J Neurosci Res. 2002, 68(5):568-78.

The subject of another test is total alpha-synuclein. As to the kind of experiment: Total alpha-synuclein IHC, L61 ASYN transgenic mice, 1 month study. The class given is in vivo. The note with it: for reduction of total alpha-synuclein level in cortex compared to vehicle control: L61 ASYN transgenic mice. The procedure:
Multiple in vivo administration studies of Compound 1 were carried out in the Line 61 (L61) mThy1-alpha-synuclein transgenic mouse model of Parkinson's disease (PD). The mThy1-alpha-synuclein transgenic mouse model overexpresses wild-type human ASYN under the Thy-1 promoter (commonly referred to as Line 61 transgenic mice; Rockenstein et al., 2002). This transgenic mouse develops extensive accumulation of alpha-synuclein (ASYN) in areas relevant to PD (Rockenstein et al., 2002; Chesselet et al., 2012; Games et al., 2013), neurodegeneration including dopaminergic neurodegeneration, reduced dopamine (DA) and TH loss in the striatum (Masliah et al., 2000; Lam et al., 2011), and motor deficits (Fleming et al., 2004). Male transgenic and non-transgenic littermates (3-3.5 mo) were used for all in vivo studies presented here.
Alpha-synuclein (ASYN) is a neuronal protein whose dysregulation has been implicated in the pathogenesis of PD. The effects of Compound 1 on alpha-synuclein aggregation were assessed in both L61 ASYN transgenic and non-transgenic mice in a 1 month administration study. L61 ASYN transgenic mice (36 total mice, n=8-11 mice per treatment group) were injected (i.p.) daily with 1, 5, or 10 mg/kg of Compound 1 or a vehicle control (5% DMSO+20% Cremphor EL+0.9% normal saline) for 1 month. Non-transgenic mice (18 total mice, n=8-11 mice per treatment group) were used as a control and were injected daily (i.p.) with 10 mg/kg of Compound 1 or a vehicle control (5% DMSO+20% Cremphor EL+0.9% normal saline) per day for 1 month. At the end of one month, the mice were sacrificed, and immunohistochemical (IHC) detection of total alpha-synuclein deposits, insoluble alpha-synuclein deposits (PK+resistant), microtubule-associated protein 1A/1B-light chain 3 (LC3), and monomeric alpha-synuclein levels were assessed in the harvested brain tissues.
The quantification and IHC staining of total alpha-synuclein were performed using known techniques (Rockenstein et al., J Neurosci Res. 2002, 68(5):568-78; Tanji et al., Acta Neuropathol. 2010, 120, 145-154; Nuber et al., Brain. 2013 February; 136(Pt 2):412-32).

The next test deals with T1, human transporter MATE1 (Homo sapiens, UniProt Q96FL8).
T1 construct: expressed in transfected cells; host or cells: MDCK-II
T1 sequence (Q96FL8 1-570): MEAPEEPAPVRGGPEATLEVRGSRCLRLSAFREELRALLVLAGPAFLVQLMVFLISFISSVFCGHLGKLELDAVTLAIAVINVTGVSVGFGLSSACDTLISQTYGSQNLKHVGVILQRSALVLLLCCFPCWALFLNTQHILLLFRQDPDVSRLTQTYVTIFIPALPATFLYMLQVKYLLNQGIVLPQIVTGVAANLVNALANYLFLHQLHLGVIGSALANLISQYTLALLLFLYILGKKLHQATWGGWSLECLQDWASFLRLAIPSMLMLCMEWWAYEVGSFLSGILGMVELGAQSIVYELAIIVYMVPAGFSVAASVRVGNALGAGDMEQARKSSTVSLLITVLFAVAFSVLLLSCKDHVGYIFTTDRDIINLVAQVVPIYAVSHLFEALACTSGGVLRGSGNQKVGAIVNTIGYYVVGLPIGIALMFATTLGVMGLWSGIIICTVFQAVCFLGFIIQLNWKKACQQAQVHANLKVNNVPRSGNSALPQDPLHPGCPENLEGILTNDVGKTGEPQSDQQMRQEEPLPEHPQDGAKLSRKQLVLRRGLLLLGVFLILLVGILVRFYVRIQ
As to the kind of experiment: In vitro ion transport assay 1, MATE1. The class given is cell-based. The note with it: probe substrate 10 μM [14C]-metformin. The procedure:
(§1) Compound 1 was studied in the concentration range of 0.1-100 μM for its potency against transport mediated by various transporter proteins. [table]

Another test addresses T2, P-gp (MDR1) (Homo sapiens, UniProt P08183).
T2 construct: expressed in transfected cells
As to the kind of experiment: In vitro ion transport assay 1, P-gp. The class given is cell-based. The note with it: probe substrate 100 nM [3H]-quinidine. The procedure: as §1

T2 sequence (P08183 whole entry, species assumed): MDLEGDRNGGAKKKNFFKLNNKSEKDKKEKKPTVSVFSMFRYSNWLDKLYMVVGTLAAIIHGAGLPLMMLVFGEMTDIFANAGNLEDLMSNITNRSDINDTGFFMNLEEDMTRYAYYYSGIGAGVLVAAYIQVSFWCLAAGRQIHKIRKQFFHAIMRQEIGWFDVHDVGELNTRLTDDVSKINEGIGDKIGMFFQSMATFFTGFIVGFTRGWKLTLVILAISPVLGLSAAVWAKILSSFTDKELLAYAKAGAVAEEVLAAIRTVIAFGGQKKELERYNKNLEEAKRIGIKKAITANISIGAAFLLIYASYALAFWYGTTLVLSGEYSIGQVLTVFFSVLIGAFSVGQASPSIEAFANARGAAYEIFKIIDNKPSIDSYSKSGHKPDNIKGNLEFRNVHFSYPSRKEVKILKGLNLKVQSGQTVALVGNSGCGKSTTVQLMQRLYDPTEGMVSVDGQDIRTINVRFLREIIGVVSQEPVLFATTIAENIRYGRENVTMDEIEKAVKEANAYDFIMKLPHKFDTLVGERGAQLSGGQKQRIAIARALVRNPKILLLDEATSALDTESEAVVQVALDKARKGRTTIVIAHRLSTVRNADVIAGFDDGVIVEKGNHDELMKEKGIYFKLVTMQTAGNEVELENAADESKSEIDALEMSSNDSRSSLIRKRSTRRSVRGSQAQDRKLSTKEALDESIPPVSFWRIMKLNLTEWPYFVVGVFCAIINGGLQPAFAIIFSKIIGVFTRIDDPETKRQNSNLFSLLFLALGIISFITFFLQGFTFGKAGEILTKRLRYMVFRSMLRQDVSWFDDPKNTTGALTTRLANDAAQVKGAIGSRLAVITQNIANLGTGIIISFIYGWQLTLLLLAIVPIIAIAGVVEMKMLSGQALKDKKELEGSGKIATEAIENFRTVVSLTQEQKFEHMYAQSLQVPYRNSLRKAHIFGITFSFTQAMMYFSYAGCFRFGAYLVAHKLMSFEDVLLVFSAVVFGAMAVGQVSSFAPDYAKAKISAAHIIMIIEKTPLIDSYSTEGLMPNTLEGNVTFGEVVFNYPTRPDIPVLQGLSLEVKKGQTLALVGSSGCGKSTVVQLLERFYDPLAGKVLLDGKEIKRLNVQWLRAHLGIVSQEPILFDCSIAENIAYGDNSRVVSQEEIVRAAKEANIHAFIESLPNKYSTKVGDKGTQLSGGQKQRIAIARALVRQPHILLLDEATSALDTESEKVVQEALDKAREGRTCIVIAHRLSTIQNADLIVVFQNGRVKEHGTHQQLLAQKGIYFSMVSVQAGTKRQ

`O=S(=O)(c1ccc(-n2cn[nH]c2=S)cc1)c1ccc(Cl)c(C(F)(F)F)c1` [Compound 1, 4-(4-((4-chloro-3-(trifluoromethyl)phenyl)sulfonyl)phenyl)-2,4-dihydro-3H-1,2,4-triazole-3-thione]: the “cortical TSPO level vs vehicle-treated Line 41 mice” value in test [1] is “reduces the TSPO level in a statistically significant manner”. Further, the “GFAP levels, IHC staining intensity in representative images” value in test [2] (5 mg/kg or 10 mg/kg daily i.p.) is given as “reducing cortical levels of GFAP”. In test [2] (10 mg/kg daily i.p.), the “GFAP levels, quantification of IHC staining” value was “reduces the cortical GFAP levels in a statistically significant manner”. Besides, the “reduction of total alpha-synuclein level in cortex compared to vehicle control” value in the test with total alpha-synuclein (1 mg/kg daily i.p.) is 13%; in the test on total alpha-synuclein (5 mg/kg daily i.p.) it was 32%; with total alpha-synuclein (10 mg/kg daily i.p.) it was 38%. Moreover, the “total ASYN in the neuropil of cortex, hippocampus and striatum vs vehicle” value with total alpha-synuclein (1, 5 or 10 mg/kg per day i.p., statistically significant) is “reduced total ASYN”. Further, the results for the negative-log IC50 (pIC50) at human transporter MATE1 and on P-gp (MDR1) were 4.52 and 4.43, respectively.
